The structures appear in SMILES notation. Bounds are passed on as bounds.

A word on the inhibition: it is the change of the read-out against control, counted positive when it falls. As a reminder, the IC50 is the concentration that inhibits the measured activity by half.

Common to all, as to type: cell-based
The target in one assay is OR10/OR7 (Anopheles gambiae, UniProt B5U0U7+Q7QCC7). Put plainly: Ca2+-imaging of stable HEK293T cell line OR10/OR7. The note with it: for inhibition at 4 µM: HEK-293T, compound applied at 4 μM, read-out: Percent Inhibition OR10 OR7; for IC50: Table B, read-out: IC50 OR10. The procedure:
Stable cell lines OR1/OR7, OR2/OR7, OR8/OR7, OR10/OR7, OR28/OR7 and TRPM8 were generated from HEK293T cells. HEK293T-based cell lines were cultured in DMEM supplemented with these additional antibiotics: 6 μg/mL blasticidin and 1 μg/mL puromycin, with the exception of the TRPM8 cell lines, which was cultured in DMEM supplemented with 1 μg/mL puromycin.
After one day of incubation, the transfected cells were transferred into 10 cm dishes with DMEM containing antibiotics as follows: • 0.5 μg/mL of blasticidin for OR1/OR7, OR2/OR7, OR8/OR7, OR10/OR7, OR28/OR7 • 0.2 μg/mL of puromycin for TRPM8.
Stable cell lines were cultured in 10 cm dishes, and confluent cells (70-80%) were trypsinized. 10,000 cells/20 μL were transferred into each well of 384-well plates coated with poly-D-lysine, and cultured for 2 days. For Flip-In T-Rex cells (cell lines expressing Or47a/Or83b and 5HT3), 5 μL of tetracycline (5 μg/mL) were added 1 day before the assay. 20 μL of Ca-4 dye was loaded into each well for 1.5 hr at room temperature in the dark, and the dye-loaded plates were subjected to Ca^2+-imaging using a Hamamatsu FDSS6000 real time fluorescence plate reader. Odorant solutions (9× final concentration) were prepared by dissolving 1M stock solutions into Hank's Buffered Salt Solution (HBSS), and 30 μL of odor solution was transferred to each well in 384-well plates.
Compounds ([…] in DMSO) were stored in 384-well plates, and last two columns (32 wells total) contained only DMSO. 200 nL of small compounds were transferred into the odorant plates before the assay using the Perkin-Elmer Janus workstation. The odorant plates were spun down to remove air bubbles, and placed on the FDSS6000 plate loader, and 5 μL of odorant solution was applied to the cell plate on the FDSS6000. Ca^2+ increase was monitored with fluorescence at 525 nm by excitation at 485 nm.

For a further assay, the target named is T1, mOREG (Mus musculus, UniProt Q920P2).
T1 sequence (Q920P2 1-313): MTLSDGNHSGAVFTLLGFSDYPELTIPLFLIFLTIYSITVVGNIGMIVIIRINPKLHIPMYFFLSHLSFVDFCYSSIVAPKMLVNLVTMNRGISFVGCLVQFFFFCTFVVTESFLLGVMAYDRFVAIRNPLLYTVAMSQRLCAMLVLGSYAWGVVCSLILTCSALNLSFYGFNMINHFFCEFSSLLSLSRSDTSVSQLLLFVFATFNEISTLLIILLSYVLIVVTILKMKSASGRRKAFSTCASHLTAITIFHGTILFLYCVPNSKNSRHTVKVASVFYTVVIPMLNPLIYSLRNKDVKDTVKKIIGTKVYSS
Description: Ca2+-imaging, control receptor mOREG. The note with it: for IC50: Table B; for inhibition at 4 µM: compound applied at 4 μM, read-out: Percent Inhibition mOREG. The procedure, abridged:
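Fluorescent Ca2+ responses (ex 485/em 525 nm) measured in real time after odorant application, with small compounds transferred into the HBSS odorant solutions beforehand. Cells were seeded on poly-D-lysine 2 days ahead and dye-loaded (Ca-4, 1.5 hr, room temperature); controls were HBSS buffer and ligand.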

Assay [1] has as its target T2, serotonin receptor (5HT3) (Mus musculus, UniProt P23979).
T2 construct: Full-length cDNAs for mosquito (Anopheles gambiae) odorant receptor; expressed in transfected cells
T2 sequence (P23979 24-489): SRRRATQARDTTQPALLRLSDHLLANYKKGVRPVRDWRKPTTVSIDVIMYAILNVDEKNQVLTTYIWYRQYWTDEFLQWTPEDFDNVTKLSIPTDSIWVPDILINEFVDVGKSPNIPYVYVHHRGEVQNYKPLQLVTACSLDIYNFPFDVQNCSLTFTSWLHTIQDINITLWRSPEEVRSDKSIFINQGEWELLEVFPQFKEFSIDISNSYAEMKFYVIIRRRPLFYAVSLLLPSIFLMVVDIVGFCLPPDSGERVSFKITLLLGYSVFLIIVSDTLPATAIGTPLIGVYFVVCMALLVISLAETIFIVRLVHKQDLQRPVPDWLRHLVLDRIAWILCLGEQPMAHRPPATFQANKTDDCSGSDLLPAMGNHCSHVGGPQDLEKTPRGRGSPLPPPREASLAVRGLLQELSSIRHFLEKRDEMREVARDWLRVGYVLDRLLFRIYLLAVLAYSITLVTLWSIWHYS
Description: Ca2+-imaging of stable Flip-In T-Rex cell line 5HT3. The note with it: for IC50: Table B, read-out: IC50 5HT3; for inhibition at 4 µM: compound applied at 4 μM, read-out: Percent Inhibition 5HT3. The method, boiled down: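 Calcium responses were read on an FDSS6000 (485 nm excitation, 525 nm emission) after Ca-4 loading for 1.5 h at room temperature. Cells were tetracycline-induced Flp-In T-REx lines stably carrying fly Or47a/Or83b or mouse 5HT3, plated 2 days ahead; compounds were co-delivered in HBSS odorant solution.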

Sequence of OR10/OR7 (Q7QCC7 whole entry): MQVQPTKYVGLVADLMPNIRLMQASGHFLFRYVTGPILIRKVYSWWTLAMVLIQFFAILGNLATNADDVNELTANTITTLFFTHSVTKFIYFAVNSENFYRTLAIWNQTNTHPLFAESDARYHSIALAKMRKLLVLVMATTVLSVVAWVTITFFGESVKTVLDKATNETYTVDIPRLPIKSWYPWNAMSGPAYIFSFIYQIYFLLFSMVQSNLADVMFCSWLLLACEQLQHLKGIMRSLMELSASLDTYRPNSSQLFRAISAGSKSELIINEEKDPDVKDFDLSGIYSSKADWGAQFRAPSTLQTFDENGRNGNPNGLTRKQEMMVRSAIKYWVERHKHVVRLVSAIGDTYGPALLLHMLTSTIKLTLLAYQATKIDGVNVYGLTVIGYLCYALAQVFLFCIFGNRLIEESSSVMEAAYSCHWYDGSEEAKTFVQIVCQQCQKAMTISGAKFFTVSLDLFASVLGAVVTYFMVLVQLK
Sequence of OR10/OR7 (B5U0U7 entry or part of it): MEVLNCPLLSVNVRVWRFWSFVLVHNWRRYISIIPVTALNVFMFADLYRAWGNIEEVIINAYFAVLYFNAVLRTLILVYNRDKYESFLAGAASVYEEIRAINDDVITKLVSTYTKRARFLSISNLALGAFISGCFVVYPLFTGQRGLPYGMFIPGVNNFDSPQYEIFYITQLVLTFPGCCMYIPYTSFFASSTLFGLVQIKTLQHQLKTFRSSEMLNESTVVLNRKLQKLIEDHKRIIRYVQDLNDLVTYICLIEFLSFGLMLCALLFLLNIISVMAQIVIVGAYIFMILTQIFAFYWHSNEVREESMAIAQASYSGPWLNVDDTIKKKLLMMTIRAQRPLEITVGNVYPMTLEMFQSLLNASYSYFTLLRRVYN

`COCCCN(CC(=O)N1CCc2sccc2C1c1ccc(OC)cc1)C(=O)C(C)(C)CCl` (stereo not drawn) [RU-0069950]: the values for the inhibition at 4 µM (at OR10/OR7; on mOREG; in assay [1]) were greater than 75%, 51 to 74% and 51 to 74%, respectively. For the same compound, the IC50 is less than 100 nM at OR10/OR7, greater than 1000 nM against mOREG and greater than 1000 nM in assay [1].
With `CCOc1ccccc1C(=O)NNC(=O)COc1cc(C)cc(C)c1` [RU-0023245], the inhibition at 4 µM (on OR10/OR7; on mOREG; in assay [1]) was 26 to 50% in each case. Moreover, the IC50 on OR10/OR7 is greater than 1000 nM.
Take `COc1ccc(C(=O)c2ccccc2)c(O)c1O` [RU-0001617]: the inhibition at 4 µM on OR10/OR7 is 51 to 74%; on mOREG, less than 25%; in assay [1], 26 to 50%. The 50% inhibitory concentration (IC50) on OR10/OR7 is less than 100 nM.
Regarding `COc1ccccc1N1CCN(C(=O)c2cc3n(n2)CCN(Cc2c(F)cccc2Cl)C3=O)CC1` [RU-0043595], the inhibition at 4 µM was less than 25% at OR10/OR7, 51 to 74% at mOREG and 51 to 74% in assay [1]. In addition, the IC50 (on mOREG; in assay [1]) was greater than 1000 nM each time.
As for `CN(Cc1ccccc1)C(=O)CCC1CCN(C(=O)CCOc2ccccc2)CC1` [RU-0028727], the inhibition at 4 µM (on OR10/OR7; on mOREG; in assay [1]) was 51 to 74% throughout. Further, the IC50 (at OR10/OR7; against mOREG; in assay [1]) was greater than 1000 nM each time.
`CC(NCc1ccccc1)c1nc2ccccc2c(=O)n1-c1ccc(Cl)cc1` (stereo not drawn) [RU-0072535]: the inhibition at 4 µM was less than 25% on OR10/OR7, 26 to 50% on mOREG and less than 25% in assay [1].
As for `COC(=O)C(Cc1ccccc1)NC(=O)C1CC1(c1ccccc1)c1ccccc1` (stereo not drawn) [RU-0028029], the inhibition at 4 µM at OR10/OR7 is 26 to 50%; at mOREG, less than 25%; in assay [1] it was 26 to 50%.
With `COc1ccc(N2CCN(C(=O)C3CC=CCC3C(=O)NCCCCc3ccccc3)CC2)cc1` (stereo not drawn) [RU-0026167], the inhibition at 4 µM on OR10/OR7 is 26 to 50%; on mOREG, 26 to 50%; in assay [1], less than 25%.
Turning to `COc1nc(NC(C)C)nc(NC(C)C)n1` [RU-0001534], the inhibition at 4 µM is less than 25% on OR10/OR7, less than 25% on mOREG and 26 to 50% in assay [1].
For the compound `CCN(CC)C(=O)Oc1ccc2c(ccn2Cc2cccc(C)c2)c1NC(=O)[C@H](C)OC(C)=O` [RU-0075468], the inhibition at 4 µM at OR10/OR7 was 26 to 50%; on mOREG it was greater than 75%; in assay [1], less than 25%. Also, the IC50 at OR10/OR7 and at mOREG was less than 100 nM in each case.
Regarding `CN(C)c1nc(N(C)C)nc(N(C)C)n1` [RU-0000619], the figures for the inhibition at 4 µM (on OR10/OR7; on mOREG; in assay [1]) were less than 25%, 51 to 74% and 26 to 50%, respectively. In addition, the IC50 at mOREG is greater than 1000 nM.
`COCCNC(=O)c1ccc(CSc2nnc(-c3ccc(C)cc3)n2-c2ccccc2F)cc1` [RU-0051652]: the inhibition at 4 µM is 26 to 50% at OR10/OR7, less than 25% on mOREG and 26 to 50% in assay [1].
Turning to `COc1ccc(N2CCN(C(=O)C3CC=CCC3C(=O)NC(c3ccccc3)c3ccccn3)CC2)cc1` (stereo not drawn) [RU-0026507], the inhibition at 4 µM at OR10/OR7 is less than 25%; at mOREG it was less than 25%; in assay [1], 26 to 50%.
For the compound `Cc1ccc(CN(Cc2ccc(F)cc2)C(=O)CN(C(=O)NC(C)(C)C)C2CC2)s1` [RU-0052360], the figures for the inhibition at 4 µM (at OR10/OR7; at mOREG; in assay [1]) were greater than 75%, 26 to 50% and less than 25%, respectively. Moreover, at OR10/OR7, the IC50 was greater than 1000 nM.
Regarding `Cc1cc(C)c2c(c1C(=O)N1CCC3(CC1)C(=O)NCN3c1ccccc1)CC(C)(C)C2=O` [RU-0025771], the inhibition at 4 µM (on OR10/OR7; at mOREG; in assay [1]) was 26 to 50% in each case.
With `CCOC(=O)C(c1cccc(OC)c1)C1C=CC(NC(=O)c2cccs2)C1` (stereo not drawn) [RU-0074560], the inhibition at 4 µM (on OR10/OR7; at mOREG; in assay [1]) was less than 25% in each case.
In the case of `CC(NC(=O)c1cc2n(n1)CCN(Cc1c(Cl)cccc1Cl)C2=O)c1ccccc1` (stereo not drawn) [RU-0045115], the inhibition at 4 µM at OR10/OR7 was less than 25%; at mOREG, 26 to 50%; in assay [1], less than 25%.
Turning to `Cc1ccc(CN(CCc2ccccc2)C(=O)CN(C(=O)NC(C)(C)C)C(C)C)o1` [RU-0072008], the inhibition at 4 µM is greater than 75% on OR10/OR7, 26 to 50% on mOREG and less than 25% in assay [1]. On OR10/OR7, the IC50 was less than 100 nM.
On to `CCOC(=O)C(c1ccc(OC)c(OC)c1)C1C=CC(NC(=O)c2ccc3c(c2)OCO3)C1` (stereo not drawn) [RU-0049030], for which the inhibition at 4 µM at OR10/OR7 was 26 to 50%; at mOREG, less than 25%; in assay [1], less than 25%.
For the compound `COCCCN(CC(=O)N1CCc2sccc2C1COc1cccc(OC)c1)C(=O)c1ccccc1OC` (stereo not drawn) [RU-0036294], the inhibition at 4 µM at OR10/OR7 was 51 to 74%; at mOREG it was 26 to 50%; in assay [1] it was less than 25%. The IC50 on OR10/OR7 is greater than 1000 nM.
The matching figures for `C=C[C@@](C)(O)CCC1C(=C)CCC2[C@@](C)(CO)CCC[C@]12C` (stereo partly drawn) [RU-0001327]: 51 to 74%, 26 to 50%, 26 to 50% and greater than 1000 nM.
In the case of `COc1cc(OC)cc(C2NC(=O)N(C)C3=C2C(=O)N(C2CCCCC2)C3)c1` (stereo not drawn) [RU-0047750], the inhibition at 4 µM at OR10/OR7 was greater than 75%; at mOREG, less than 25%; in assay [1] it was 26 to 50%. For the same compound, on OR10/OR7, the IC50 was less than 100 nM.
In the case of `COCCCN(CC(=O)N1CCc2sccc2C1COc1cccc(OC)c1)C(=O)Cc1ccccc1` (stereo not drawn) [RU-0036264], the inhibition at 4 µM (on OR10/OR7; at mOREG; in assay [1]) was less than 25% each time.
In the case of `COc1ccc(-c2nnc(SCc3ccc(C#N)cc3)n2-c2ccc(C)cc2)cc1` [RU-0046426], the inhibition at 4 µM was 26 to 50% at OR10/OR7, 51 to 74% on mOREG and 26 to 50% in assay [1]. For the same compound, the IC50 against mOREG is greater than 1000 nM.
`COCCN(Cc1cc(Cl)ccc1OS(=O)(=O)c1ccc(F)cc1)C(=O)C1CCC1` [RU-0035287]: the inhibition at 4 µM at OR10/OR7 was less than 25%; on mOREG, 26 to 50%; in assay [1] it was 26 to 50%.
`COc1nc(OCC#N)nc(N2CCCCC2)n1` [RU-0006256]: the inhibition at 4 µM at OR10/OR7 is 51 to 74%; at mOREG, less than 25%; in assay [1], 26 to 50%. The IC50 on OR10/OR7 is greater than 1000 nM.
For the compound `CCOCCCN(CC(=O)N(Cc1ccc2c(c1)OCO2)Cc1sccc1C)C(=O)NC(C)(C)C` [RU-0052340], the results for the inhibition at 4 µM (at OR10/OR7; on mOREG; in assay [1]) were 51 to 74%, 26 to 50% and less than 25%, respectively. The IC50 on OR10/OR7 is less than 100 nM.
